Measurements from ChEMBL document CHEMBL1201862, “PubChem BioAssay data set” (2004).
Activity calls are given as the source filed them.

Experiments:
[1] = inhibitors of intracellular T. cruzi replication, confirmation, NIH3T3 host cells, beta-gal luminescence (AID 2044); assay type: functional, cell-based;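 further: intracellular parasites grown in NIH/3T3 mouse fibroblasts as host cells; luminescent beta-galactosidase reporter signal from transgenic T. cruzi replicating inside host cells; inhibitors lower the luminescence signal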
[2] = cytotoxicity toward NIH3T3 fibroblasts, dose response, counter-screen, cell-based, ATP luminescence, mouse fibroblasts (AID 2010); assay type: functional;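 further: cells exposed to compound for about 90 hours before reading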
[3] = target: T1, Rac GTPase-activating protein 1 (Homo sapiens, UniProt Q9H0H5); experiment: MgcRacGAP GTPase-activating activity inhibitors, confirmation, biochemical, ADP Hunter fluorescence, primary and confirmatory (AID 624330); assay type: functional
T1 sequence (Q9H0H5 whole entry): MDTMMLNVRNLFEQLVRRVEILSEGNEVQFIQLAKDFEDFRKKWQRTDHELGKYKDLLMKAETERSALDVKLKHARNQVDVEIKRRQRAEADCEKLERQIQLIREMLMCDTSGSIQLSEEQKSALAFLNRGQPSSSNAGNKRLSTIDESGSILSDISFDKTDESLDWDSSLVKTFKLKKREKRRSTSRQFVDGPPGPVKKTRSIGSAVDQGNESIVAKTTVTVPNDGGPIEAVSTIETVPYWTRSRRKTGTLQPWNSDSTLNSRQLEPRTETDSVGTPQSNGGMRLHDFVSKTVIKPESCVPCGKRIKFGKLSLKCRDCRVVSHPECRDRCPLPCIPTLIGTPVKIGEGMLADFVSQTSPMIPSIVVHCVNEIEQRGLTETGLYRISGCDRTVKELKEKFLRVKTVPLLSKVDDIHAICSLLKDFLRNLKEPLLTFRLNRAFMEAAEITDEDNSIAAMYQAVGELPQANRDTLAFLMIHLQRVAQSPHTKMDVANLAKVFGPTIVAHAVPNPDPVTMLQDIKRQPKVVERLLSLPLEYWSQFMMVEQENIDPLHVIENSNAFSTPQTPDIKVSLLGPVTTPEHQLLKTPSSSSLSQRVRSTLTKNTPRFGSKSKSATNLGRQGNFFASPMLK

[4] = target: T2, DNA repair protein RAD52 homolog (Homo sapiens, UniProt P43351); assay type: functional, biochemical
T2 sequence (P43351 whole entry): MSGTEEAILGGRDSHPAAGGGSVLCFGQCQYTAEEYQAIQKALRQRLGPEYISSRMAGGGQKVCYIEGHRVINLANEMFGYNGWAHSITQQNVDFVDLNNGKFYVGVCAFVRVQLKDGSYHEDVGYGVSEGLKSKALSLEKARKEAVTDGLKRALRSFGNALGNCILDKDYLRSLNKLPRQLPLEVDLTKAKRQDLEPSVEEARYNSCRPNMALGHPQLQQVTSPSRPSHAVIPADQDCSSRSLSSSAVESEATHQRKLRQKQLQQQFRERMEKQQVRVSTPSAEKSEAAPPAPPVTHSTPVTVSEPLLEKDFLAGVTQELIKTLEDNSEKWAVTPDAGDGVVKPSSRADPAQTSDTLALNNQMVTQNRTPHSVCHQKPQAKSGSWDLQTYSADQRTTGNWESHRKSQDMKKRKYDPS

[5] = target: T3, Histone-lysine N-methyltransferase NSD2 (Homo sapiens, UniProt O96028); assay type: biochemical
T3 sequence (O96028 whole entry): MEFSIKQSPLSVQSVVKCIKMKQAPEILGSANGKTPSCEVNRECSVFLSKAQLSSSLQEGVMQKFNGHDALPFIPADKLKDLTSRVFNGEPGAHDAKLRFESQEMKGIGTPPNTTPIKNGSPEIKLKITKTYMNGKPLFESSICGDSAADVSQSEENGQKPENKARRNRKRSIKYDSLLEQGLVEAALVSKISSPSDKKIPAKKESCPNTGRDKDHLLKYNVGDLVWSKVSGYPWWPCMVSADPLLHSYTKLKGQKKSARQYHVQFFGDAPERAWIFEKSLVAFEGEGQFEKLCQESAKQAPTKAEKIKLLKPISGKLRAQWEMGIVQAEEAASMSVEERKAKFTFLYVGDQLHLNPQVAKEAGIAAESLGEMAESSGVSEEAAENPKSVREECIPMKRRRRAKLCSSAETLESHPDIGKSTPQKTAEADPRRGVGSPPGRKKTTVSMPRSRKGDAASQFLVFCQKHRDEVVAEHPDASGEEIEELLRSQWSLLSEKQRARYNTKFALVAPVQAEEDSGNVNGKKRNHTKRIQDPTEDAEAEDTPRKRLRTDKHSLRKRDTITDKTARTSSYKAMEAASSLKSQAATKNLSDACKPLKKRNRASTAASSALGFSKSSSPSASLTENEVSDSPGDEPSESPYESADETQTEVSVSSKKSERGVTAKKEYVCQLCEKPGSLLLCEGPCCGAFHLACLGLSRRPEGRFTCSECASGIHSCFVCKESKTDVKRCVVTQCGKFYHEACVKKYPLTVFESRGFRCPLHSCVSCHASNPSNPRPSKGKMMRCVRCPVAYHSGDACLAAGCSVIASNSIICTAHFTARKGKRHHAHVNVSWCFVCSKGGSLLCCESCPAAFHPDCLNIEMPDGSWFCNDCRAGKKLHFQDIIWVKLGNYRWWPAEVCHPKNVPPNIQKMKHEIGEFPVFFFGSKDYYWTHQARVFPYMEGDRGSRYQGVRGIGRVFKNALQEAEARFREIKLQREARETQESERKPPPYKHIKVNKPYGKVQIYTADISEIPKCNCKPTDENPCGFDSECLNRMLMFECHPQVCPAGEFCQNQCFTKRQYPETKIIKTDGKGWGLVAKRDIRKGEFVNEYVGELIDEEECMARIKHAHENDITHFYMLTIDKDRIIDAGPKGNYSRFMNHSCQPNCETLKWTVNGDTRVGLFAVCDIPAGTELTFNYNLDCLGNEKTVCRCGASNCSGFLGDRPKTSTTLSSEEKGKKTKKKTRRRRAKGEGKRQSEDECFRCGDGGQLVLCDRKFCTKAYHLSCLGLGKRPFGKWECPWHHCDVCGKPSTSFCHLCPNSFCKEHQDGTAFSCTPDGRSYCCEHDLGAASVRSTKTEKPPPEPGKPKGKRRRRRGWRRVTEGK

Fatty acid synthase [6] = target: T4, Fatty acid synthase (Homo sapiens, UniProt P49327); experiment: FAS thioesterase domain inhibitors, dose response, biochemical, endpoint fluorescence intensity, uHTS hits (AID 624327); assay type: functional;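 further: fluorescence from hydrolysis of an O-methyl fluorescein acyl ester substrate by the enzyme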
Fatty acid synthase [7] = target: T4, Fatty acid synthase; experiment: FAS thioesterase domain inhibitors, dose response, biochemical, kinetic fluorescence intensity (AID 624326); assay type: functional;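 further: rate of fluorescence rise from hydrolysis of a fluorogenic O-methyl fluorescein ester substrate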
BJ [8] = experiment: cytotoxicity toward BJ-TERT fibroblasts, dose response, cell-based, RAS-independent, luminescence (AID 1933); assay type: functional; conditions: Homo sapiens
BJ [9] = experiment: cells; assay type: functional, cell-based; conditions: Homo sapiens
BJ [10] = experiment: cytotoxicity toward BJ-TERT-LT-ST fibroblasts, dose response, cell-based, RAS-independent, luminescence (AID 1935); assay type: functional; conditions: Homo sapiens;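 further: BJ fibroblasts immortalized with TERT plus LT and ST oncogenes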
[11] = cytotoxicity toward DRD oncogenic fibroblasts, dose response, cell-based, non-viral oncogenic, luminescence (AID 1934); assay type: functional; conditions: Homo sapiens
[12] = cytotoxicity in HEK-293T cells, dose response, cytotoxicity control for TCR NF-kB inhibitor project, luminescence, T-cell screen hits (AID 489026); assay type: functional, cell-based;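 further: cells exposed to compound about 14 hours before the viability readout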
BJ [13] = experiment: cytotoxicity toward Ras-transformed BJeLR fibroblasts, dose response, cell-based, alamar blue fluorescence, cherrypicked samples (AID 2631); assay type: functional; conditions: Homo sapiens;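 further: confirmatory dose-response assay in RAS-dependent BJ fibroblasts engineered with TERT, LT and ST, with cytotoxicity read by fluorescence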
cells = assay type: functional, cell-based
[14] = target: T5, Nuclear receptor subfamily 0 group B member 1 (Homo sapiens, UniProt P51843); assay type: functional, cell-based;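 further: HEK293T cells transfected with SF-1 and DAX-1 plus StAR promoter luciferase reporter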
T5 sequence (P51843 whole entry): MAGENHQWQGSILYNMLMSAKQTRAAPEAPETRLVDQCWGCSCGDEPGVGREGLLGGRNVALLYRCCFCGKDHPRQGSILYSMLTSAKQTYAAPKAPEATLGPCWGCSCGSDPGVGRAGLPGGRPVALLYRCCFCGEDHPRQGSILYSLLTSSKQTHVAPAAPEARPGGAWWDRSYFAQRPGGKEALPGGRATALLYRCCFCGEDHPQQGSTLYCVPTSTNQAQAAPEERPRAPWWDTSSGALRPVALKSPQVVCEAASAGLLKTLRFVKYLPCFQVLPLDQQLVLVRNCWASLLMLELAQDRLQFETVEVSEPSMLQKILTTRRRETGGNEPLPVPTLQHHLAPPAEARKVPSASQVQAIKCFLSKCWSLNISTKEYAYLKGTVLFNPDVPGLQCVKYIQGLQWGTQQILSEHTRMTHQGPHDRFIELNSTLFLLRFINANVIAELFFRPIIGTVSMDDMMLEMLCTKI

[15] = target: T6, Heat shock factor protein 1 (Mus musculus, UniProt P38532); experiment: inhibition of MG132-induced HSE-luciferase signal, confirmation, cell-based, NIH3T3, luminescence, dose retest (AID 2382); assay type: functional;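 further: NIH3T3 fibroblasts with HSF1-driven luciferase reporter stressed by proteasome inhibitor MG132; luminescence from HSF1-driven luciferase expression after 8 hours of MG132 stress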
T6 sequence (P38532 whole entry): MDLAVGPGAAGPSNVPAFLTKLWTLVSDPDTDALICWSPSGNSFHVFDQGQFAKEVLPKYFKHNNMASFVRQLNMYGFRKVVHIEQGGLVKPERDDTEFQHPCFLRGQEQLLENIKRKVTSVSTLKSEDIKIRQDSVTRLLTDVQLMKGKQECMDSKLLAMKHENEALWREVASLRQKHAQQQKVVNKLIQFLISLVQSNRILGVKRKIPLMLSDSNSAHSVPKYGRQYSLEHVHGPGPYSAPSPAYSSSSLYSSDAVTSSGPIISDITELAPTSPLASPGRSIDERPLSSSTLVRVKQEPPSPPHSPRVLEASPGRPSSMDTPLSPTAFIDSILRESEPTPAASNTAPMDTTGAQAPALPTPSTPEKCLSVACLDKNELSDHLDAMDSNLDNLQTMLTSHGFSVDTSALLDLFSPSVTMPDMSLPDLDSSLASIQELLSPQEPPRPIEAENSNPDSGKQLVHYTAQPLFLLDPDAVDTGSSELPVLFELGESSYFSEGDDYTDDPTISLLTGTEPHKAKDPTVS

[16] = inhibitors of firefly luciferase expression or activity, dose response, H4 neuroglioma cells, luminescence (AID 1990); assay type: functional, cell-based
[17] = Luminescence Cell-Based Dose Response HTS to Identify Inhibitors of 5'UTR Stem-Loop Driven Prion Protein mRNA Translation in H4 Neuroglioblastoma Cells. [Related pubchem assays: 1827 (Project Summary), 1813 (Primary HTS)]; assay type: functional
[18] = inhibitors of SNCA 5'UTR-driven reporter translation, confirmation, H4 neuroglioma cells, luminescence (AID 1988); assay type: functional, cell-based
[19] = microbe, parasite or virus in culture; assay type: functional; conditions: Mycobacterium tuberculosis
Nonstructural protein 1 = Nonstructural protein 1 (Influenza A virus, UniProt Q194T2); assay type: functional, Influenza A virus (A/California/07/2009(H1N1))
Kallikrein-7 = Kallikrein-7 (Homo sapiens, UniProt P49862); experiment: Fluorescence Intensity-based biochemical primary high throughput dose response assay to identify activators of kallikrein-7 (K7) zymogen.
[20] = HEK293T cytotoxicity, dose response, cytotoxicity control for miR-122 modulator project, cell-based, inhibitor set, cherry-pick, set 2 (AID 720697); assay type: functional

T4 sequence (P49327 whole entry, the tested form may be a part): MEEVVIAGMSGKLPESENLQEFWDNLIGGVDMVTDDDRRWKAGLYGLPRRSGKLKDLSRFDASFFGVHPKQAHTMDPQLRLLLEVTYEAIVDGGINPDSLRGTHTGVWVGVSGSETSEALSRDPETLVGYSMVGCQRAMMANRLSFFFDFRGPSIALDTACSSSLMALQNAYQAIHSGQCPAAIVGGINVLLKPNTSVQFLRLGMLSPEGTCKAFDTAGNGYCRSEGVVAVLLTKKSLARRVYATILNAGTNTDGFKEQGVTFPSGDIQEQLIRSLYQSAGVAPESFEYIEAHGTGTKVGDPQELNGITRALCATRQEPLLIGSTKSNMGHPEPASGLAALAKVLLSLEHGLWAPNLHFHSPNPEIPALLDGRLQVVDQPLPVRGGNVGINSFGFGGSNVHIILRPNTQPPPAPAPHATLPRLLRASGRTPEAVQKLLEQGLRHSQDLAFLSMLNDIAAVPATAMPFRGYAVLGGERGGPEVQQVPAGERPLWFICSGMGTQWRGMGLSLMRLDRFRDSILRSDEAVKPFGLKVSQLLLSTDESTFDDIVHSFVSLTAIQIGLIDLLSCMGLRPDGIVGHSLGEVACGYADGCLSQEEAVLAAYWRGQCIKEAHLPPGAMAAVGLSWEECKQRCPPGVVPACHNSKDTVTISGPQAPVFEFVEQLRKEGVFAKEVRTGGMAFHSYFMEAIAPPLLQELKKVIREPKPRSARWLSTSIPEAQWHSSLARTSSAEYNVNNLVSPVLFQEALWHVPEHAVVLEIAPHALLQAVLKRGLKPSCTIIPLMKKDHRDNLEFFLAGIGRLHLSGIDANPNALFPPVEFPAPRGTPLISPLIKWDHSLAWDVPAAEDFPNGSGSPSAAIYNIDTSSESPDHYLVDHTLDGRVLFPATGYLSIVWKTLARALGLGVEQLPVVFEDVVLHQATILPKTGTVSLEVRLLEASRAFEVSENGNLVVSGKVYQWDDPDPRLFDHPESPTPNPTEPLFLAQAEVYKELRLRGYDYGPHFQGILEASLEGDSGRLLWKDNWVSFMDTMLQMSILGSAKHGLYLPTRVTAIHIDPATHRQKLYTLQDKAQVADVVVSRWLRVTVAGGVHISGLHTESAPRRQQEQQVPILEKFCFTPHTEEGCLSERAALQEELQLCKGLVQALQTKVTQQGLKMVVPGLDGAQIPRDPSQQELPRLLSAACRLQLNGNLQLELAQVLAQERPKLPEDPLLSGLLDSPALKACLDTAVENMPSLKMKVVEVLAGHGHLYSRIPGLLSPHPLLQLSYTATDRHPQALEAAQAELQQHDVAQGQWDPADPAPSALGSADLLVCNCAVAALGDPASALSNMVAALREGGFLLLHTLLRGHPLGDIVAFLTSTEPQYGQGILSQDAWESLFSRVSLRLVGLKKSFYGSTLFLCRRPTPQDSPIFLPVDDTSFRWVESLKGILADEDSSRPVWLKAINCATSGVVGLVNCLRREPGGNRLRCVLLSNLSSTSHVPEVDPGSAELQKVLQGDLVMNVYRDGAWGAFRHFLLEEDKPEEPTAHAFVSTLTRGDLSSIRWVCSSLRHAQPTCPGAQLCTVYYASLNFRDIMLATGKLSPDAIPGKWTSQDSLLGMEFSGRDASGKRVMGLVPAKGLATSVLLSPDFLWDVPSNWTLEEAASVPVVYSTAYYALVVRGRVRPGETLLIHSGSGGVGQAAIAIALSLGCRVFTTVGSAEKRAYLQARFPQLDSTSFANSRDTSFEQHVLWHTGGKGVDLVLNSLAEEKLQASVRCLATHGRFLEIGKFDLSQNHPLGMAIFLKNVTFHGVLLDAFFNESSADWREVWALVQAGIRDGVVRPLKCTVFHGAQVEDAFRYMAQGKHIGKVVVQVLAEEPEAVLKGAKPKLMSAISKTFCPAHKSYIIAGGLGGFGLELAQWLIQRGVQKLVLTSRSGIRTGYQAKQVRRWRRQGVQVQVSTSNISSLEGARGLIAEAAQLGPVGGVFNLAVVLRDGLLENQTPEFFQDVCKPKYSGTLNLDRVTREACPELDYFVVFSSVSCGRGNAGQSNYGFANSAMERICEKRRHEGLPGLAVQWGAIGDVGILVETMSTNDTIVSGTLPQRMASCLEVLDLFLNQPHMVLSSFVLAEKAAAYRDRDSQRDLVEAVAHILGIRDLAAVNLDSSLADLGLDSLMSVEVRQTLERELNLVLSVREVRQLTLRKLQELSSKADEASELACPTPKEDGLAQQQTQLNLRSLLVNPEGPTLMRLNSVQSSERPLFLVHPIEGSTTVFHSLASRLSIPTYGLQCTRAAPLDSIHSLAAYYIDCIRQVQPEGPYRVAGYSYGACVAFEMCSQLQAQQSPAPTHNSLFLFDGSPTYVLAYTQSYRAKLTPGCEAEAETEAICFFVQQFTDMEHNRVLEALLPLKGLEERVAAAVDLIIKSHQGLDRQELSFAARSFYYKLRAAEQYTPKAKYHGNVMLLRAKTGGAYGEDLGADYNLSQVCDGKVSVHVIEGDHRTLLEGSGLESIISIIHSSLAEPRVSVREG
Sequence of Kallikrein-7 (P49862 whole entry): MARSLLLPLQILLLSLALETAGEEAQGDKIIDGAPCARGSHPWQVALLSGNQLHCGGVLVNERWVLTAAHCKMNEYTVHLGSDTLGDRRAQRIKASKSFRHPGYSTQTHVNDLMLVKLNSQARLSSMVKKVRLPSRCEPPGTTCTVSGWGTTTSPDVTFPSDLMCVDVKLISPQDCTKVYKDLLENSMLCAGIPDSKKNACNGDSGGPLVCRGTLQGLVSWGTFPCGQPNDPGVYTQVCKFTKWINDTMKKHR
Sequence of Nonstructural protein 1 (Q194T2 whole entry): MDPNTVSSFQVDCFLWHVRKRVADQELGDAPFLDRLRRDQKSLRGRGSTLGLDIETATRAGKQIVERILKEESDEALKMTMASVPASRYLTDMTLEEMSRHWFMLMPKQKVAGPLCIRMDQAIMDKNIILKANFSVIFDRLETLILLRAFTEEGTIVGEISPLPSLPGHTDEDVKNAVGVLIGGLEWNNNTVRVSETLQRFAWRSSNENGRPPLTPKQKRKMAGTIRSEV

Structure (SMILES): C[n+]1ccc(/C=C/c2ccccc2O)c2ccccc21
- EC50 [1]: 0.753 µM (active)
- EC50 [2]: > 60 µM (not active)
- IC50 [3]: 178 µM (active)
- AC50 [4]: 19.1 µM (active)
- AC50 [5]: > 20 µM (inactive)

Structure (SMILES): O=C(COC(=O)c1cc([N+](=O)[O-])ccc1NCCO)Nc1cccc(S(=O)(=O)N2CCCC2)c1
- IC50 (Fatty acid synthase [6]): 6.67 µM (active)
- IC50 (Fatty acid synthase [7]): 4.57 µM (active)

Structure (SMILES): O=C(Nc1ccc([N+](=O)[O-])cc1)Nc1ccon1
- EC50 (BJ [8]): 1.57 µM (active)
- EC50 (BJ [9]): 12.1 µM (active)
- EC50 (BJ [10]): 4.66 µM (active)
- EC50 [11]: 1.21 µM (active)
- IC50 [12]: > 80 µM (inactive)
- EC50 (BJ [13]): < 0.104 µM (active)

Structure (SMILES): CCCC(C)C(=O)Nc1cc([N+](=O)[O-])ccc1Cl (centres undefined)
- IC50 (Fatty acid synthase [6]): 12.2 µM (active)
- IC50 (Fatty acid synthase [7]): 11.8 µM (active)

Structure (SMILES): Cn1cccc1C(=O)NCC1COc2ccccc2O1 (centres undefined)
- IC50 (cells): > 67.5 µM (inactive)
- IC50 [14]: > 67.5 µM (inactive)

Structure (SMILES): Cc1cc(-n2c(C)c3c(C)nnc(C)c3c2C)ccc1N
- EC50 [15]: > 195 µM (not active)
- AC50 [4]: 8.66 µM (active)

Structure (SMILES): ClC1=C(Cl)C(Cl)=C(Cl)C1=C/C=C/c1ccccc1
- EC50 [16]: 3.75 µM (inconclusive)
- EC50 (BJ [8]): 2.55 µM (inconclusive)
- EC50 [17]: 10.9 µM (active)
- EC50 [18]: 3.43 µM (active)
- EC50 (BJ [9]): 2.98 µM (active)
- CC50 [19]: 7.07 µM (active)
- EC50 (BJ [10]): 2.42 µM (inconclusive)
- EC50 [11]: 2.45 µM (active)
- IC50 (Nonstructural protein 1): 33.6 µM (active)
- EC50 (BJ [13]): 1.25 µM (active)

Structure (SMILES): COc1ccc(-c2ccc3nnc(SCC(=O)N4CCCC4)n3n2)cc1
- EC50 (Kallikrein-7): > 69.5 µM (inactive)

Structure (SMILES): CN1CCN(CCCNCc2cn(CCC#N)c3ccccc23)CC1
- IC50 [3]: 64.3 µM (active)
- AC50 [4]: 4.32 µM (active)

Structure (SMILES): Cc1cc(C(C)(C)C)cc(C)c1COC(=O)CN1C(=O)NC2(CCCC2)C1=O
- IC50 (Fatty acid synthase [6]): 15.8 µM (active)
- IC50 (Fatty acid synthase [7]): 13.2 µM (active)

Structure (SMILES): N#Cc1c(NC(=O)COC(=O)c2nccnc2N)sc2c1CCCC2
- EC50 (Kallikrein-7): > 69.5 µM (inactive)

Structure (SMILES): c1ccc(CCCNCCCn2cnc3c(OCc4ccccc4)ncnc32)cc1
- AC50 [20]: 7.5 µM (active)

Structure (SMILES): COc1ccccc1C=C1CCc2ccccc2C1=O
- IC50 (cells): > 67.5 µM (inactive)
- IC50 [14]: > 67.5 µM (inactive)

Structure (SMILES): COc1ccccc1-c1nnc2n1N=C(c1ccc3c(c1)OCO3)CS2
- IC50 (cells): > 67.6 µM (inactive)
- IC50 [14]: > 67.6 µM (inactive)

Structure (SMILES): CO[C@@H]1CN(C)C(=O)c2cc(NC(=O)c3cccc(Oc4ccccc4)c3)ccc2OC[C@H](C)NC[C@@H]1C
- AC50 [20]: 15.1 µM (active)

Structure (SMILES): COc1ccc2c(c1)CCC/C2=N\NC(=O)c1ccoc1C
- IC50 (cells): > 67.5 µM (inactive)
- IC50 [14]: > 67.5 µM (inactive)

Structure (SMILES): CCOc1cc(-c2nccc3cc(OC)c(OC)cc23)cc(OCC)c1OCC [OCTAVERINE]
- AC50 [20]: 1.89 µM (active)
